Measurements taken from patent US20230398130A1, “METHODS AND COMPOSITIONS FOR DIFFERENTIATING STEM CELLS” (Massachusetts Institute of Technology, priority 2020, published 2023).
Counter-ions that a name gives are not always drawn.

Legend:
ISC-enriched organoids [1] = test: Primary screen, 384-well 2.5-D organoid differentiation (ENR+CD, 6 days): basal lysozyme secretion (LYZ.NS); assay type: cell-based, murine; conditions: for SSMD.LYZ.NS: strictly standardized mean difference, primary screen; for Dose.FC.LYZ.NS: ENR+CD, 6 days, FC vs plate median; for Z.LYZ.NS: standard z score of FC
Text: (§1) High-throughput screening.

ISC-enriched organoids [2] = test: Primary screen, 384-well 2.5-D organoid differentiation (ENR+CD, 6 days): carbachol-induced lysozyme secretion (LYZ.S); assay type: cell-based, murine; conditions: for Z.LYZ.S: standard z score; for Z.LYZ.S / SSMD.LYZ.S: primary screen; for SSMD.LYZ.S: strictly standardized mean difference; for Dose.FC.LYZ.S: ENR+CD, 6 days, FC vs plate median
Text: as §1

ISC-enriched organoids [3] = test: Primary screen, 384-well 2.5-D organoid differentiation (ENR+CD, 6 days, Target Selective Inhibitor Library, vs whole-plate median): ATP (CellTiter-Glo 3D, CTG); conditions: for SSMD.CTG: strictly standardized mean difference; for Dose.FC.CTG: ENR+CD, 6 days, FC vs plate median
[4] = 1st of the 4 dose lines of the treatment (dose not given)
[5] = 2nd of the 4 dose lines of the treatment (dose not given)
[6] = 3rd of the 4 dose lines of the treatment (dose not given)
[7] = 4th of the 4 dose lines of the treatment (dose not given)
[8] = Dose 0.08 uM, standard z score of FC
[9] = Dose 0.40 uM, standard z score of FC
[10] = Dose 2.00 uM, standard z score of FC
[11] = Dose 10.00 uM, standard z score of FC

| SMILES | Dose.FC.LYZ.NS (ISC-enriched organoids [1]; Dose 0.08 uM) [log 2 fold change] | Z.LYZ.NS (ISC-enriched organoids [1]; Dose 0.08 uM) | Dose.FC.LYZ.NS (ISC-enriched organoids [1]; Dose 0.40 uM) [log 2 fold change] | Z.LYZ.NS (ISC-enriched organoids [1]; Dose 0.40 uM) | Dose.FC.LYZ.NS (ISC-enriched organoids [1]; Dose 2.00 uM) [log 2 fold change] | Z.LYZ.NS (ISC-enriched organoids [1]; Dose 2.00 uM) | Dose.FC.LYZ.NS (ISC-enriched organoids [1]; Dose 10.00 uM) [log 2 fold change] | Z.LYZ.NS (ISC-enriched organoids [1]; Dose 10.00 uM) | Dose.FC.LYZ.S (ISC-enriched organoids [2]; Dose 0.08 uM) [log 2 fold change] | Dose.FC.LYZ.S (ISC-enriched organoids [2]; Dose 0.40 uM) [log 2 fold change] | Dose.FC.LYZ.S (ISC-enriched organoids [2]; Dose 2.00 uM) [log 2 fold change] | Dose.FC.LYZ.S (ISC-enriched organoids [2]; Dose 10.00 uM) [log 2 fold change] | Dose.FC.CTG (ISC-enriched organoids [3]; Dose 0.08 uM) [log 2 fold change] | Z.CTG (ISC-enriched organoids [3]; [8]) | Dose.FC.CTG (ISC-enriched organoids [3]; Dose 0.40 uM) [log 2 fold change] | Z.CTG (ISC-enriched organoids [3]; [9]) | Dose.FC.CTG (ISC-enriched organoids [3]; Dose 2.00 uM) [log 2 fold change] | Z.CTG (ISC-enriched organoids [3]; [10]) | Dose.FC.CTG (ISC-enriched organoids [3]; Dose 10.00 uM) [log 2 fold change] | Z.CTG (ISC-enriched organoids [3]; [11]) | other results |
| --- | --- | --- | --- | --- | --- | --- | --- | --- | --- | --- | --- | --- | --- | --- | --- | --- | --- | --- | --- | --- | --- |
| CC[C@H](C)C(=O)O[C@H]1C[C@@H](C)C=C2C=C[C@H](C)[C@H](CC[C@@H]3C[C@@H](O)CC(=O)O3)[C@H]21 [Lovastatin] |  |  |  |  |  |  |  |  |  |  |  |  |  |  |  |  |  |  |  |  | SSMD.LYZ.NS (ISC-enriched organoids [1]; [4]): 0.014; SSMD.LYZ.NS (ISC-enriched organoids [1]; [5]): −0.516; SSMD.LYZ.NS (ISC-enriched organoids [1]; [6]): −1.430; SSMD.LYZ.NS (ISC-enriched organoids [1]; [7]): −1.590; Z.LYZ.S (ISC-enriched organoids [2]; [4]): −0.147; Z.LYZ.S (ISC-enriched organoids [2]; [5]): −0.320; Z.LYZ.S (ISC-enriched organoids [2]; [6]): −2.572; Z.LYZ.S (ISC-enriched organoids [2]; [7]): −2.645; SSMD.LYZ.S (ISC-enriched organoids [2]; [4]): −0.128; SSMD.LYZ.S (ISC-enriched organoids [2]; [5]): −0.236; SSMD.LYZ.S (ISC-enriched organoids [2]; [6]): −1.424; SSMD.LYZ.S (ISC-enriched organoids [2]; [7]): −1.288; Z.CTG (ISC-enriched organoids [3]; Dose 0.08 uM, primary screen, standard z score): −0.769; Z.CTG (ISC-enriched organoids [3]; Dose 0.40 uM, primary screen, standard z score): −1.174; Z.CTG (ISC-enriched organoids [3]; Dose 2.00 uM, primary screen, standard z score): −2.803; Z.CTG (ISC-enriched organoids [3]; Dose 10.00 uM, primary screen, standard z score): −3.322; SSMD.CTG (ISC-enriched organoids [3]; primary screen, 1st of the 4 dose lines of the treatment (dose not given)): −0.609; SSMD.CTG (ISC-enriched organoids [3]; primary screen, 2nd of the 4 dose lines of the treatment (dose not given)): −1.511; SSMD.CTG (ISC-enriched organoids [3]; primary screen, 3rd of the 4 dose lines of the treatment (dose not given)): −2.978; SSMD.CTG (ISC-enriched organoids [3]; primary screen, 4th of the 4 dose lines of the treatment (dose not given)): −1.911 |
| CCn1c2ccccc2c2cc(Nc3ccnc(NCCCN4CCOCC4)n3)ccc21 [EHop-016] | 0.177 | 1.537 | 0.035 | 0.302 | 0.029 | 0.252 | −0.203 | −1.769 | 0.091 | 0.012 | −0.011 | −0.299 | 0.081 | 0.193 | 0.062 | 0.147 | 0.088 | 0.211 | −0.757 | −1.808 |  |
| COc1cccc2c1C(=O)c1c(O)c3c(c(O)c1C2=O)C[C@@](O)(C(C)=O)C[C@@H]3O[C@H]1C[C@H](N)[C@H](O)[C@H](C)O1 [Daunorubicin HCl] | −0.136 | −1.188 | −0.241 | −2.099 | −0.262 | −2.280 | −0.260 | −2.262 | −0.096 | −0.329 | −0.343 | −0.374 | −0.467 | −1.115 | −0.601 | −1.436 | −0.817 | −1.950 | −1.100 | −2.628 |  |
